Laboratory results: PubChem BioAssay (NCI)
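Results reflect a 48-hour exposure of cells in 96-well plates to compound at five concentrations. TGI is the concentration that stops growth completely.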

Tests used:
Assay in all cases: DTP human tumour cell line panel, 48 h
HL-60(TB) leukemia = system: HL-60(TB) leukemia
HT29 colon = system: HT29 colon
MALME-3M melanoma = system: MALME-3M melanoma
MCF7 breast = system: MCF7 breast
NCI/ADR-RES ovarian = system: NCI/ADR-RES ovarian
OVCAR-5 ovarian = system: OVCAR-5 ovarian
SK-MEL-5 melanoma = system: SK-MEL-5 melanoma
UO-31 renal = system: UO-31 renal

| SMILES | TGI (HL-60(TB) leukemia) [µM] | TGI (HT29 colon) [µM] | TGI (MALME-3M melanoma) [µM] | TGI (MCF7 breast) [µM] | TGI (NCI/ADR-RES ovarian) [µM] | TGI (OVCAR-5 ovarian) [µM] | TGI (SK-MEL-5 melanoma) [µM] | TGI (UO-31 renal) [µM] |
| --- | --- | --- | --- | --- | --- | --- | --- | --- |
| Cc1ccc(C(=O)Nc2ccc(S(=O)(=O)O)c3cc(S(=O)(=O)O)cc(S(=O)(=O)O)c23)cc1NC(=O)c1cccc(NC(=O)Nc2cccc(C(=O)Nc3cc(C(=O)Nc4ccc(S(=O)(=O)O)c5cc(S(=O)(=O)O)cc(S(=O)(=O)O)c45)ccc3C)c2)c1 (tested in a mixture with another compound) | > 50 | > 50 | > 50 | > 50 | > 50 | > 50 | > 50 | > 50 |
| CCOC(=O)C(C(=O)OCC)=C1NC2(c3ccccc3Nc3ccc(C)cc32)C(C(=O)OC)S1 (stereo unspecified) | > 100 | > 100 | 63.5 | > 100 | > 100 | > 100 | 66.9 | > 100 |
| NC(=O)c1nnsc1NC=O | > 100 | > 100 | > 100 | > 100 | > 100 | > 100 | > 100 | > 100 |
| CC(C)OC(=O)[C@@H](O)[C@H](CO)C1=CC([Si](C)(C)c2ccccc2)=CON1 |  | > 100 |  | > 100 | > 100 | > 100 | > 100 | > 100 |
| CC1CCc2sc3[nH]c(=S)n(-c4ccccc4)c(=O)c3c2C1 (stereo unspecified) |  | > 100 | > 100 | > 100 | > 100 | > 100 | > 100 | > 100 |
| CCN(CC)C(=O)N1CN(c2ccccc2)C2(CCN(CCCSc3ccc(F)cc3)CC2)C1=O | 19.4 | 13 | 29.6 | > 100 | 83.4 | 36.9 | 12.3 | 22.6 |
| CC(NC(=O)C(N)CC(=O)O)NC(=O)N(C)C(C)(C)C (stereo unspecified) | > 100 | > 100 | > 100 | > 100 | > 100 | > 100 | > 100 | > 100 |
| C=C(C(=O)OC)c1cc2ccccc2n1S(=O)(=O)c1ccccc1 | 10.2 | 24.9 | 5.72 | 8.11 | 18.7 | 21.7 | 5.36 | 9.41 |
| Cc1ccc(S(=O)(=O)NC(=O)NC(Cc2ccc(O)c(O)c2)C(=O)O)cc1 (stereo unspecified) | > 100 | > 100 | > 100 | > 100 | > 100 | > 100 | > 100 | > 100 |
| N#Cc1ccc(Oc2nc3ccc(C(F)(F)F)cc3nc2-c2ccccc2)cc1 | 46.3 | 34.5 | 45.3 | 44.1 | 37.1 | 26.2 | 46.5 | 46.1 |
| COC(=O)[C@H](Cc1ccccc1)NP(=O)(O)OCC1C=CC(n2cc(C)c(=O)[nH]c2=O)O1 (stereo partly specified) | > 100 | > 100 | > 100 | > 100 | > 100 | > 100 | > 100 | > 100 |
| S=C(Nc1ccccn1)Nc1ccccc1Cl | > 100 | > 100 | > 79.5 | > 100 | > 100 | > 100 | > 100 | > 100 |
| O=C1CCCC2=C1CC1=C(CCCC1=O)N2c1ccccc1 | > 100 | > 100 |  | > 100 | > 100 | > 100 | > 100 | > 100 |
| O=[N+]([O-])c1c2nc3n(c2cc2c1nc1n2CCC1)CCC3 | > 100 | > 100 | > 100 | > 100 | > 100 | > 100 | > 100 | > 100 |
| COc1ccc(/C=N/NC(=O)c2cnc3[nH]c(=O)n(C)c(=O)c3c2)cc1 |  | > 100 | > 100 | > 100 | > 100 | > 100 | > 100 | > 100 |
| CC[C@@]12C=CC(=S)N(CCSc3ccccc3)[C@@H]1c1c(n(S(=O)(=O)c3ccc(OC)cc3)c3ccccc13)CC2 | > 100 | > 100 | > 100 | > 100 | > 100 | > 100 | > 100 | > 100 |
| CC(C)(C)[C@H]1CCC2(OCCO2)[C@](O)(CCCO)C1 | > 100 | > 100 | > 100 | > 100 | > 100 | > 100 | > 100 | > 100 |
| COc1ccc(-c2cc(-c3cc(F)c(Cl)cc3Cl)on2)cc1OC | 63.4 | > 100 | > 100 |  | > 100 | > 100 | 43.3 | > 100 |
| O=C1C(NCCN2CCOCC2)=C(Cl)C(=O)c2ncccc21 | 0.168 | 2.95 | 1.9 | 1.14 |  | 3.18 | 1.1 | 2.33 |
| N=c1c2c(=S)n(-c3ccccc3)c(=S)n(-c3ccccc3)c2nc(SCCN2CCOCC2)n1-c1ccccc1 | 3.31 | 4.03 | 3.49 | > 100 | 14.6 | 33.9 | 6.66 |  |

| SMILES | TGI (HL-60(TB) leukemia) [µM] | TGI (HT29 colon) [µM] | TGI (MALME-3M melanoma) [µM] | TGI (MCF7 breast) [µM] | TGI (NCI/ADR-RES ovarian) [µM] | TGI (OVCAR-5 ovarian) [µM] | TGI (SK-MEL-5 melanoma) [µM] | TGI (UO-31 renal) [µM] |
| --- | --- | --- | --- | --- | --- | --- | --- | --- |
| NC1CC(=O)c2sccc21 (stereo unspecified) |  | > 100 |  | > 100 | > 100 | > 100 | > 100 | > 100 |
| c1ccc(C2=NCCc3cc4c(cc32)OCO4)cc1 |  |  | > 100 | > 100 | > 100 | > 100 | > 100 |  |
| c1ccc(C(CCN2CC3CCC(CC3)C2)c2ccccc2)cc1 |  | 48.4 | 29.9 | 29 | 58.3 | 56.8 | 30.1 | 45.7 |
| C=CCN(c1cc(OC)c2[nH]cc(C)c2c1[N+](=O)[O-])S(C)(=O)=O | > 100 |  | > 100 | > 100 | > 100 | > 100 | > 100 | > 100 |
| CC(=O)OCC1=C(C)C[C@H]([C@@H](COC(C)=O)C2CCC3C4C[C@H]5O[C@]56CC=CC(=O)[C@]6(C)C4CC[C@@]32C)OC1=O (stereo partly specified) | 0.198 | 0.508 | 0.963 | 2.09 |  | 3.13 | 0.875 | 2.96 |
| Cc1cc2nc(N3C(=O)/C(=C/c4ccc(Cl)cc4)N=C3c3ccccc3)sc2cc1C | 51.7 | 63.2 |  | > 100 | 87.3 | 92.7 | 43.6 | > 100 |
| O=[N+]([O-])c1ccc(Cl)cc1N/N=C/c1cccc2cccnc12 | > 100 | > 100 |  | > 100 | > 100 |  | > 100 | > 100 |
| c1ccc(N=C2SC3=NCCN3C2=Nc2ccccc2)cc1 |  | 41.3 |  | 24.9 | > 100 | 34.9 | 28.9 | 26.4 |
| O=C1c2ccccc2-c2nc(/C=C/c3ccccc3)cc3c2c1nc1ccccc13 |  | 92 |  | > 100 | > 100 | > 100 | 8.8 | > 100 |
| O=C(OCCC12CC3CC(CC(C3)C1)C2)c1ccc(NCc2cc(O)ccc2O)cc1 | 0.853 | 10.6 | 3.81 | > 100 | 11.1 |  | 2.51 | 1.58 |
| CC1(C)CC2(C)CC1CC2NC(=O)CCN1CCOCC1 (stereo unspecified) | > 100 | > 100 | > 100 | > 100 |  | > 100 | > 100 | > 100 |
| CC(Cc1ccccc1)NC1=NCCO1 (stereo unspecified) |  | 40.3 |  | > 100 |  | > 100 | > 100 | 50.4 |
| CC(=O)O[C@H]1C[C@H]2C(=S)Nc3ccccc3C(=S)N2C1 |  | > 100 | > 100 | > 100 | > 100 | > 100 | > 100 | > 100 |
| O=C(N/N=C\c1ccccc1)Nc1cccc2ccccc12 | > 100 | 69.9 | > 100 |  | > 100 | > 100 | 24.4 | > 100 |
| NC(=O)CC(N=C1C(=O)OC(C(O)CO)C1=NC(CC(N)=O)C(=O)O)C(=O)O (stereo unspecified) | > 100 | > 100 | > 100 | > 100 | > 100 |  | > 100 | > 100 |
| c1ccc(-c2cc(-c3cccs3)c(-c3cccs3)o2)cc1 | > 100 | > 100 |  | > 100 | > 100 | > 100 | > 100 | > 100 |
| Clc1c(C(Cl)(Cl)Cl)nsc1N1CCCCC1 | 48.2 | 38.3 | 40.8 | 69.3 |  | > 100 | 29.6 | 44.3 |
| Cc1nc(C(N)=S)sc1C(=O)C/C(=N/N)C(=O)Nc1ccc(Cl)cc1 |  | > 100 | > 100 | > 100 | > 100 | > 100 | > 100 | > 100 |
| O=C(OCc1ccccc1)N1CCN(C(=O)OCc2ccccc2)CCN(C(=O)OCc2ccccc2)CCN(C(=O)OCc2ccccc2)CCN(C(=O)OCc2ccccc2)CC1 |  |  | 61.2 | > 100 | > 100 | > 100 | 33.3 | > 100 |
